The results in this text go back to US9199928B2, “Fluorescent dye for pH sensor” (SARTORIUS STEDIM BIOTECH GMBH, priority 2011, dated 2015).

In the case of `NC(CCCCNS(=O)(=O)c1cc(S(=O)(=O)NCCCCC(N)C(=O)O)c2ccc3c(O)cc(O)c4ccc1c2c43)C(=O)O` (stereo not shown), the melting point (in general, the temperature, or range, at which the solid turns liquid) is 210 to 212 °C (dec.).
